Experimental data published in patent US20240218022A1, “ANTI-VISTA MACROCYCLIC PEPTIDES AND COMPOSITIONS” (BRISTOL-MYERS SQUIBB COMPANY, priority 2022, published 2024).
Like-named read-outs stand apart in the source and are kept apart here. Blank lines part the entries; values can stand above or below the compound they belong to. Starred links: 1 amine or outer side, 2 acyl side, 3 side chain; linkers in the order of their positions; H or OH if unused. Positions of bridges follow the written chain, without caps; N, C: chain ends. Non-standard residues stand in square brackets, D forms with d. Residues, ends and D or L forms follow the SMILES beside them. Tyr(3-Cl) = N[C@@H](Cc1ccc(O)c(Cl)c1)C(=O)O; Phe(3-Me) = Cc1cccc(C[C@H](N)C(=O)O)c1; γGlu = O=C(O)[C@H](CCC(=O)[*:2])N[*:1]; 2Nal = N[C@@H](Cc1ccc2ccccc2c1)C(=O)O; βAsp = O=C(O)[C@H](CC(=O)[*:2])N[*:1]; Cit = NC(=O)NCCC[C@H](N)C(=O)O; Ahp(2) = CCCCC[C@H](N)C(=O)O; NMeNle = CCCC[C@H](NC)C(=O)O; Tle = CC(C)(C)[C@H](N)C(=O)O; NHexGly = CCCCCCNCC(=O)O; NMeA = CN[C@@H](C)C(=O)O; Nle = CCCC[C@H](N)C(=O)O; Orn = NCCC[C@H](N)C(=O)O; Aun = NCCCCCCCCCCC(=O)O; Dap = NC[C@H](N)C(=O)O; AEEA = NCCOCCOCC(=O)O

Target: T1, mouse VISTA (mVISTA) (Mus musculus, UniProt Q9D659)
T1 construct: expressed in transfected cells; host or cells: Human embryonic kidney 293T cells
T1 sequence (Q9D659 33-308): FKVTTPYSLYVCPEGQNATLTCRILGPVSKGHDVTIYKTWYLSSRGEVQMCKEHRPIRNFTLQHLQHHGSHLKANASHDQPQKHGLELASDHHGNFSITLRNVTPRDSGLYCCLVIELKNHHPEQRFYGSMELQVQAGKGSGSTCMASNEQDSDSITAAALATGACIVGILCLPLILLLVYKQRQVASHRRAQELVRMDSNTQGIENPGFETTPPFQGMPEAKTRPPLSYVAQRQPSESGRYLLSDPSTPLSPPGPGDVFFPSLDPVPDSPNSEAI
Assay: Cell-Based Binding High-Content Assay For mVISTA (HC CBA mVISTA)
Method in brief: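 mVISTA-293T, 4,000 cells/well; cpd ± washout step; biotin-peptide 2 nM final, 30 min RT; SA-Alexa 647 30 min; formaldehyde/Hoechst fix; HCS imaging; 4PL IC50.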

[1] = cell-based binding high-content assay, mVISTA, the 16th table, read-out: HC CBA mVISTA IC50
[2] = 293T cells expressing mouse VISTA, competition with biotinylated peptide (2 nM), read-out: HC CBA mVISTA IC50

- IC50 (read-out: HC CBA mVISTA IC50): 18.6 nM
Structure (SMILES): CCCCCCN1CC(=O)N[C@@H](Cc2ccc(O)cc2)C(=O)N[C@@H](CCCC)C(=O)N[C@@H](CC(N)=O)C(=O)N[C@@H](CCCNC(=N)N)C(=O)N(C)[C@@H](CCCC)C(=O)N[C@@H](CCCCC)C(=O)N2CCC[C@H]2C(=O)N[C@@H](C(C)(C)C)C(=O)N[C@@H](CO)C(=O)N[C@H](C(=O)NCCOCCOCC(=O)N[C@@H](CCC(=O)NCCOCCOCC(=O)NCCCCCCCCCCC(=O)O)C(=O)O)CSCC(=O)N[C@@H](Cc2ccccc2)C(=O)N[C@@H](Cc2ccc(O)cc2)C(=O)N[C@@H](CC(=O)O)C1=O [compound 2224] ({CH2CO}-FYD[NHexGly]Y[Nle]NR[NMeNle][Ahp(2)]P[Tle]SC[AEEA][γGlu][AEEA][Aun]-OH; thioether N-14)

- IC50 (read-out: HC CBA mVISTA IC50): 15.8 nM
Structure (SMILES): CCCCCCN1CC(=O)N[C@@H](Cc2ccc(O)cc2)C(=O)N[C@@H](CCCC)C(=O)N[C@@H](CC(N)=O)C(=O)N[C@@H](CCCNC(N)=O)C(=O)N(C)[C@@H](CCCC)C(=O)N[C@@H](CCCCC)C(=O)N(C)[C@@H](C)C(=O)N[C@@H](C(C)C)C(=O)N[C@@H](CO)C(=O)N[C@H](C(=O)NCC(N)=O)CSCC(=O)N[C@@H](Cc2ccccc2)C(=O)N[C@@H](Cc2c[nH]c3ccccc23)C(=O)N[C@@H](CC(=O)O)C1=O [compound 1144] ({CH2CO}-FWD[NHexGly]Y[Nle]N[Cit][NMeNle][Ahp(2)][NMeA]VSCG-NH2; thioether N-14)

- IC50 (cell-based binding high-content assay, mVISTA, read-out: HC CBA miPr ISTA IC50): 16.1 nM
Structure (SMILES): CCCCCCN1CC(=O)N[C@@H](Cc2ccc(O)cc2)C(=O)N[C@@H](CCCC)C(=O)N[C@@H](CC(N)=O)C(=O)N[C@@H](CCCNC(=N)N)C(=O)N[C@@H](CC(C)C)C(=O)N[C@@H](CCCCC)C(=O)N2CCC[C@H]2C(=O)N[C@@H](C(C)C)C(=O)N[C@@H](CC(=O)O)C(=O)N[C@H](C(=O)NCC(=O)NCCOCCOCC(=O)N[C@@H](CC(=O)O)C(=O)NCCOCCOCC(=O)NCCCCCCCCCCC(=O)O)CSCC(=O)N[C@@H](Cc2cccc(C)c2)C(=O)N[C@@H](Cc2c[nH]c3ccccc23)C(=O)N[C@@H](CC(=O)O)C1=O [compound 2008] ({CH2CO}-[Phe(3-Me)]WD[NHexGly]Y[Nle]NRL[Ahp(2)]PVDCG[AEEA]D[AEEA][Aun]-OH; thioether N-14)

- IC50 (read-out: HC CBA mVISTA IC50): 24.4 nM
Structure (SMILES): CCCCCCN1CC(=O)N[C@@H](Cc2ccc(O)cc2)C(=O)N[C@@H](CCCC)C(=O)N[C@@H](CC(N)=O)C(=O)N[C@@H](CCCNC(=N)N)C(=O)N(C)[C@@H](CCCC)C(=O)N[C@@H](CCCCC)C(=O)N2CCC[C@H]2C(=O)N[C@@H](C(C)(C)C)C(=O)N[C@@H](CO)C(=O)N[C@H](C(=O)NCCOCCOCC(=O)N[C@@H](CCC(=O)NCCOCCOCC(=O)NCCCCCCCCCCC(=O)O)C(=O)O)CSCC(=O)N[C@@H](Cc2ccccc2)C(=O)N[C@@H](Cc2c[nH]c3ccccc23)C(=O)N[C@@H](CC(=O)O)C1=O [compound 2226] ({CH2CO}-FWD[NHexGly]Y[Nle]NR[NMeNle][Ahp(2)]P[Tle]SC[AEEA][γGlu][AEEA][Aun]-OH; thioether N-14)

- IC50 (cell-based binding high-content assay, read-out: HC CBA mVISTA IC50): 24 nM
Structure (SMILES): CCCCCCN1CC(=O)N[C@@H](Cc2ccc(O)c(Cl)c2)C(=O)N[C@@H](CC(C)C)C(=O)N[C@@H](CC(N)=O)C(=O)N[C@@H](CCCN)C(=O)N(C)[C@@H](CCCC)C(=O)N[C@@H](CCCCC)C(=O)N2CCC[C@H]2C(=O)N[C@@H](C(C)(C)C)C(=O)N[C@@H](CO)C(=O)N[C@H](C(=O)N[C@@H](CC(=O)NCCOCCOCC(=O)N[C@@H](CC(=O)O)C(=O)NCCOCCOCC(=O)NCCCCCCCCCCC(=O)O)C(=O)O)CSCC(=O)N[C@@H](Cc2ccccc2)C(=O)N[C@@H](Cc2ccc(O)cc2)C(=O)N[C@@H](CC(=O)O)C1=O [compound 2336] ({CH2CO}-FYD[NHexGly][Tyr(3-Cl)]LN[Orn][NMeNle][Ahp(2)]P[Tle]SC[βAsp][AEEA]D[AEEA][Aun]-OH; thioether N-14)

- IC50 (read-out: HC CBA mVISTA IC50): 17.8 nM
Structure (SMILES): CCCCCCN1CC(=O)N[C@@H](Cc2ccc(O)cc2)C(=O)N[C@@H](CC(C)C)C(=O)N[C@@H](CC(N)=O)C(=O)N[C@@H](CCCNC(=N)N)C(=O)N(C)[C@@H](CCCC)C(=O)N[C@@H](CCCCC)C(=O)N2CCC[C@H]2C(=O)N[C@@H](C(C)(C)C)C(=O)N[C@@H](CC(=O)O)C(=O)N[C@H](C(=O)NCCOCCOCC(=O)N[C@@H](CCC(=O)NCCOCCOCC(=O)NCCCCCCCCCCC(=O)O)C(=O)O)CSCC(=O)N[C@@H](Cc2ccccc2)C(=O)N[C@@H](Cc2c[nH]c3ccccc23)C(=O)N[C@@H](CC(=O)O)C1=O [compound 2265] ({CH2CO}-FWD[NHexGly]YLNR[NMeNle][Ahp(2)]P[Tle]DC[AEEA][γGlu][AEEA][Aun]-OH; thioether N-14)

- IC50 (the 19th table, scaffold drawing 22, read-out: HC CBA mVISTA IC50): 9.4 nM
Structure (SMILES): CCCCCCN1CC(=O)N[C@@H](Cc2ccc(O)cc2)C(=O)N[C@@H](CCCC)C(=O)NCC(=O)N[C@@H](CCCNC(=N)N)C(=O)N[C@@H](CC(C)C)C(=O)N[C@@H](CCCCC)C(=O)N2CCC[C@H]2C(=O)N[C@@H](C(C)C)C(=O)N[C@@H](CC(=O)O)C(=O)N[C@H](C(=O)N[C@@H](CO)C(=O)O)CSCC(=O)N[C@@H](Cc2cccc(C)c2)C(=O)N[C@@H](Cc2ccc(O)cc2)C(=O)N[C@@H](CC(=O)O)C1=O [compound 1435] ({CH2CO}-[Phe(3-Me)]YD[NHexGly]Y[Nle]GRL[Ahp(2)]PVDCS-OH; thioether N-14)

The next lines start with the compound.

Structure (SMILES): CCCCCCN1CC(=O)N[C@@H](Cc2ccc(O)cc2)C(=O)N[C@@H](CCCC)C(=O)N[C@@H](CC(=O)O)C(=O)N[C@@H](CCCNC(=N)N)C(=O)N[C@@H](CC(C)C)C(=O)N[C@@H](CCCCC)C(=O)N2CCC[C@H]2C(=O)N[C@@H](C(C)C)C(=O)N[C@@H](CC(=O)O)C(=O)N[C@H](C(=O)N[C@@H](CC(=O)O)C(N)=O)CSCC(=O)N[C@@H](Cc2ccc3ccccc3c2)C(=O)N[C@@H](Cc2ccc(O)cc2)C(=O)N[C@@H](CC(=O)O)C1=O [Ex 1267] ({CH2CO}-[2Nal]YD[NHexGly]Y[Nle]DRL[Ahp(2)]PVDCD-NH2; thioether N-14)
- IC50 [1]: 15.3 nM

Structure (SMILES): CCCCCCN1CC(=O)N[C@@H](Cc2ccc(O)cc2)C(=O)N[C@@H](CCCC)C(=O)N[C@@H](CC(N)=O)C(=O)N[C@@H](CCCNC(=N)N)C(=O)N(C)[C@@H](CCCC)C(=O)N[C@@H](CCCCC)C(=O)N2CCC[C@H]2C(=O)N[C@@H](C(C)C)C(=O)N[C@@H](CC(=O)O)C(=O)N[C@H](C(=O)N[C@@H](CN)C(=O)N[C@@H](CCC(N)=O)C(=O)O)CSCC(=O)N[C@@H](Cc2ccc3ccccc3c2)C(=O)N[C@@H](Cc2c[nH]c3ccccc23)C(=O)N[C@@H](CC(=O)O)C1=O [compound 1135] ({CH2CO}-[2Nal]WD[NHexGly]Y[Nle]NR[NMeNle][Ahp(2)]PVDC[Dap]Q-OH; thioether N-14)
- IC50 (read-out: HC CBA mVISTA IC50): 39.1 nM

Structure (SMILES): CCCCCCN1CC(=O)N[C@@H](Cc2ccc(O)cc2)C(=O)N[C@@H](CCCCC)C(=O)N[C@@H](CC(N)=O)C(=O)N[C@@H](CCCNC(=N)N)C(=O)N[C@@H](C)C(=O)N[C@@H](CCCCC)C(=O)N2CCC[C@H]2C(=O)N[C@@H](C(C)C)C(=O)N[C@@H](CO)C(=O)N[C@H](C(=O)NCC(N)=O)CSCC(=O)N[C@@H](Cc2ccccc2)C(=O)N[C@@H](Cc2ccc(O)cc2)C(=O)N[C@@H](CC(=O)O)C1=O [Example 1089] ({CH2CO}-FYD[NHexGly]Y[Ahp(2)]NRA[Ahp(2)]PVSCG-NH2; thioether N-14)
- IC50 [2]: 37.9 nM

Structure (SMILES): CCCCCCN1CC(=O)N[C@@H](Cc2ccc(O)cc2)C(=O)N[C@@H](CCCC)C(=O)NCC(=O)N[C@@H](CCCNC(=N)N)C(=O)N[C@@H](CC(C)C)C(=O)N[C@@H](CCCCC)C(=O)N2CCC[C@H]2C(=O)N[C@@H](C(C)C)C(=O)N[C@@H](CC(=O)O)C(=O)N[C@H](C(=O)NCC(N)=O)CSCC(=O)N[C@@H](Cc2ccc3ccccc3c2)C(=O)N[C@@H](Cc2ccc(O)cc2)C(=O)N[C@@H](CC(=O)O)C1=O [Ex 1284] ({CH2CO}-[2Nal]YD[NHexGly]Y[Nle]GRL[Ahp(2)]PVDCG-NH2; thioether N-14)
- IC50 [1]: 3.6 nM

Structure (SMILES): CCCCCCN1CC(=O)N[C@@H](Cc2ccc(O)cc2)C(=O)N[C@@H](CC(C)C)C(=O)N[C@@H](CC(N)=O)C(=O)N[C@@H](CCCNC(=N)N)C(=O)N(C)[C@@H](CCCC)C(=O)N[C@@H](CCCCC)C(=O)N2CCC[C@H]2C(=O)N[C@@H](C(C)(C)C)C(=O)N[C@@H](CO)C(=O)N[C@H](C(=O)N[C@@H](CCC(=O)NCCCCCCCCCCC(=O)O)C(=O)O)CSCC(=O)N[C@@H](Cc2ccccc2)C(=O)N[C@@H](Cc2c[nH]c3ccccc23)C(=O)N[C@@H](CC(=O)O)C1=O [Example 2131] ({CH2CO}-FWD[NHexGly]YLNR[NMeNle][Ahp(2)]P[Tle]SC[γGlu][Aun]-OH; thioether N-14)
- IC50 (read-out: HC CBA mVISTA IC50): 38 nM

Structure (SMILES): CCCCCCN1CC(=O)N[C@@H](Cc2ccc(O)cc2)C(=O)N[C@@H](CCCC)C(=O)N[C@@H](CC(=O)O)C(=O)N[C@@H](CCCNC(=N)N)C(=O)N[C@@H](CC(C)C)C(=O)N[C@@H](CCCCC)C(=O)N2CCC[C@H]2C(=O)N[C@@H](C(C)C)C(=O)N[C@@H](C(C)C)C(=O)N[C@H](C(=O)NCC(=O)O)CSCC(=O)N[C@@H](Cc2ccccc2)C(=O)N[C@@H](Cc2ccc(O)cc2)C(=O)N[C@@H](CC(=O)O)C1=O [Example 1065] ({CH2CO}-FYD[NHexGly]Y[Nle]DRL[Ahp(2)]PVVCG-OH; thioether N-14)
- IC50 [2]: 15.6 nM
